This is an account of results in patent publication US7704986B2, “Vitamin D3 analogues for the prevention and treatment of bone disorders” (K.U. Leuven Research and Development, priority 2004, dated 2010).

Data set [1] deals with OVX or SHAM C3H female mice. Briefly: Restoration of bone loss in ovariectomized mice, oral treatment started 3 weeks after surgery. Particulars: 8 weeks. It counts as in vivo. The protocol:
12-week-old C3H female mice were subjected to bilateral ovariectomy (OVX) or sham surgery SHAM (time point −3). The OVX and SHAM animals were treated with the vitamin D analogue MV2 (1 μg/kg three times per week) or vehicle (arachis oil) by oral gavage. Dosing was started 3 weeks after surgery (time point 0) and was continued for 8 weeks (time point 8). The number of mice per group is 8 to 10.
Before the surgery and 3 weeks after ovariectomy in vivo, measurements were performed in order to determine bone mineral density (BMD), bone mineral content (BMC) of total body and spine by DEXA. Before the surgery and 3 weeks after ovariectomy, serum was collected to measure calcium levels by a standard […] method (Synchron CX4, Beckman Instruments, USA). The animals were weighted regularly during the experimental period to monitor their overall health and well being. After 4 weeks treatment, serum was again collected and biochemical parameters were determined. At the end of the experiment (8 weeks of treatment) bone mineral density (BMD) and bone mineral content (BMC) of total body and spine were measured by DEXA and serum was collected to determine serum calcium levels. […] Tibiae were used for histomorphometric analysis, and femurs for measurement of cortical and trabecular volumetric density and geometry by peripheral quantitative computed tomography (PQCT) ex vivo. […]

The target in data set [2] is T1, human vitamin D binding protein (hDBP) (Homo sapiens, UniProt P02774).
T1 sequence (P02774 17-474): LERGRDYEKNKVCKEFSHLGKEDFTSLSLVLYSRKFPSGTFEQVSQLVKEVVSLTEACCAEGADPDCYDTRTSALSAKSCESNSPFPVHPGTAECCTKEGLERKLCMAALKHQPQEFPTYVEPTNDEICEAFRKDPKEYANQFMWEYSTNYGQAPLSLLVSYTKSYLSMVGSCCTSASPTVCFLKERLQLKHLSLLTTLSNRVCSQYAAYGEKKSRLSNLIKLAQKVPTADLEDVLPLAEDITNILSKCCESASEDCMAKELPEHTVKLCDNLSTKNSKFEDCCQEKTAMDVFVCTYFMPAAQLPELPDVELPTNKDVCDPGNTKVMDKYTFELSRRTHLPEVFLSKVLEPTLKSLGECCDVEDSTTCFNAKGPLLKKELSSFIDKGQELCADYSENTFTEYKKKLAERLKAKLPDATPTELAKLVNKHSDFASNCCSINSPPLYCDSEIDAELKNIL
In words: Affinity for human vitamin D binding protein. As to conditions: hDBP 0.18 μM, 4° C. 3 hours; 1,25(OH)2D3 = 100. The protocol: Binding of 1α,25(OH)2D3 analogues to hDBP was performed at 4° C. […] Phase separation was then obtained by the addition of 0.5 ml of cold dextran-coated charcoal.

In the case of `C[C@H](CC#CC(O)(C(F)(F)F)C(F)(F)F)[C@@]1(C)CC[C@@H](/C=C/C=C2C[C@@H](O)C[C@H](O)C2)C1(C)C` [MV2, (1R,3R)-5-((E)-3-((1S,3R)-3-((1R)-6,6,6-trifluoro-5-hydroxy-1-methyl-5-trifluoromethyl-3-hexynyl)-2,2,3-trimethylcyclopentyl)-2-propenylidene)cyclohexane-1,3-diol], the “hypercalcemic effects (serum calcium)” value in data set [1] (1 pg/kg three times per week (so in the source)) was “no hypercalcemic effects”. Besides, the “body weight during treatment” value in data set [1] (1 μg/kg p.o. three times per week) is reported as “no animals lost weight”. Also, in data set [2], the “DBP (relative affinity)” value was 7%.
